# What was measured:
# human cyclin E-CDK2 = human cyclin E-CDK2 (Homo sapiens, UniProt P24941); assay: FlashPlate kinase assay, cyclin E-CDK2; assay type: biochemical; details: Rb protein substrate, 1 μM ATP
# Protocol: (§1) To determine inhibition of Cdk4, Cdk2 and Cdk1 activity, kinase assays were conducted using FlashPlate™ assays (NEN™-Life Science Products). FlashPlate assays were performed using recombinant human cyclin B-CDK1, human cyclin E-CDK2 or human cyclin D1-CDK4 complexes. GST-cyclinE (GST-cycE), CDK2, GST-cyclinB (GST-cycB), CDK1, GST-CDK4 and cyclin D1 (cycD1) cDNA clones in baculovirus vectors were provided by Dr. W. Harper at the Baylor College of Medicine, Houston, Tex.
# (§2) The expression of the 62Kd protein was under the control of an IPTG inducible promoter in an M15 E. coli strain. Cells were lysed by sonication and purification was carried out by binding lysates at pH 8.0 to a Ni-chelated agarose column pretreated with 1 mM imidazole. The resin was then washed several times with incrementally decreasing pH buffers to pH 6.0, and eluted with 500 mM imidazole. Eluted protein was dialysed against 20 mM HEPES pH 7.5, 30% glycerol, 200 mM NaCl, and 1 mM DTT. Purified Rb fusion protein stocks were quantitated for protein concentration, aliquoted, and stored at −70° C.
# (§3) For all three kinase assays reported herein, 96-well FlashPlates were coated with Rb protein at 10 μg/ml, using 100 μl per well. Plates were incubated at 4° C. overnight or at room temperature for 3 hours on a shaker. To control for nonspecific phosphorylation, one row of wells was coated with 100 μl/well coating buffer (20 mM HEPES, 0.2 M NaCl). Plates were then washed twice with wash buffer (0.01% Tween 20 in phosphate-buffered saline). Compounds to be tested (“test compounds”) were added to the wells at 5×final concentration. Reactions were initiated by immediate addition of 40 μl reaction mix (25 mM HEPES, 20 mM MgCl2, 0.002% Tween 20, 2 mM DTT, 1 μM ATP, 4 nM ^33P-ATP) and a sufficient amount of enzyme to give counts that were at least 10-fold above background. Plates were incubated at room temperature on a shaker for 30 minutes. Plates were washed four times with the wash buffer, sealed, and counted on the TopCount scintillation counter (Packard Instrument Co., Downers Grove, Ill.]. The percent inhibition of Rb phosphorylation, which is a measure of the inhibition of CDK activity, was determined according to the following formula: [formula]
# (§4) where “test compound” refers to the average counts per minute of the test duplicates, “nonspecific” refers to the average counts per minute when no CyclinD/Cdk4, etc., was added, and “total” refers to the average counts per minute when no compound was added.
# HCT116 = assay: Tetrazolium dye (MTT) proliferation assay; assay type: cell-based; details: Homo sapiens, HCT-116; HCT116 colorectal carcinoma cell line
# Protocol: The cell line used was HCT116, a colorectal carcinoma cell line obtained from the American Type Cell Culture Collection (ATCC;
# Rockville, Md.). The cells were grown in McCoy's 5A medium supplemented with 10% FCS and L-glutamine.
# Cells were plated at the appropriate seeding density to give logarithmic growth over the course of the assay in a 96-well tissue culture plate. Plates were incubated overnight at 37° C. in a humidified incubator with 5% CO2. The next day, test compounds were serially diluted to four times the final concentration in the appropriate medium containing 1.2% DMSO. One-fourth final volume of each dilution was added in duplicate to the plates containing cells. The same volume of 1.2% DMSO in medium was added to a row of “control wells” such that the final concentration of DMSO in each well was 0.3%. Wells to which no cells were added served as the “blank.” Wells to which no inhibitor was added served as “no inhibitor control.” The plates were) returned to the incubator, and at set time points (determined by their growth curves) plates were analyzed as described below.
# 3-(4,5-dimethylthiazole-2-yl)-2,5-diphenyl-2H-tetrazolium bromide (thiazolyl blue; MTT; Sigma) was added to each well to yield a final concentration of 1 mg/ml. Plates were returned to the incubator for 2.5-3 hours at 37° C. The MTT-containing medium was removed and the resulting formazan metabolite was solubilized in 100% ethanol with shaking for 15 minutes at room temperature. Absorbance readings were taken in a microtiter plate reader (Dynatech and Molecular Devices plate readers were used interchangeably) at a wavelength of 570 nm with a 650 nm reference. Percent inhibition (% INH) is calculated by subtracting the absorbance of the blank well from all wells, then subtracting the ratio of the average absorbance of each test duplicate (SAVE) by the average of the controls (CAVE) from 1.00. The final number is then multiplied by 100 (% INH=(1.00−SAVE/CAVE)×100).
# human cyclin B-CDK1 = human cyclin B-CDK1 (Homo sapiens, UniProt P06493); assay: FlashPlate kinase assay, cyclin B-CDK1; assay type: biochemical; details: Rb protein substrate, 1 μM ATP
# Protocol: as §1, §2, §3, §4
# human cyclin D1-CDK4 = human cyclin D1-CDK4 (Homo sapiens, UniProt P11802); assay: FlashPlate kinase assay, cyclin D1-CDK4; assay type: biochemical; details: Rb protein substrate, 1 μM ATP
# Protocol: as §1, §2, §3, §4
# Chain of human cyclin B-CDK1 (P06493 whole entry): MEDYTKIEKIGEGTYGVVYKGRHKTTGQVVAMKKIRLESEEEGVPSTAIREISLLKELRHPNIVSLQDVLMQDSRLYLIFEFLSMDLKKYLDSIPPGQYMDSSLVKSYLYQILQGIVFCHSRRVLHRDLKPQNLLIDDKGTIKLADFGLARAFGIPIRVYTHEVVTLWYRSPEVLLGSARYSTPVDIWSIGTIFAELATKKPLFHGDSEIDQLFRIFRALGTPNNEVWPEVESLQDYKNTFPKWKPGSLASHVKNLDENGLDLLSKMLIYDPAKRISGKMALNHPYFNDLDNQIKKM
# Chain of human cyclin B-CDK1 (P14635 whole entry partner): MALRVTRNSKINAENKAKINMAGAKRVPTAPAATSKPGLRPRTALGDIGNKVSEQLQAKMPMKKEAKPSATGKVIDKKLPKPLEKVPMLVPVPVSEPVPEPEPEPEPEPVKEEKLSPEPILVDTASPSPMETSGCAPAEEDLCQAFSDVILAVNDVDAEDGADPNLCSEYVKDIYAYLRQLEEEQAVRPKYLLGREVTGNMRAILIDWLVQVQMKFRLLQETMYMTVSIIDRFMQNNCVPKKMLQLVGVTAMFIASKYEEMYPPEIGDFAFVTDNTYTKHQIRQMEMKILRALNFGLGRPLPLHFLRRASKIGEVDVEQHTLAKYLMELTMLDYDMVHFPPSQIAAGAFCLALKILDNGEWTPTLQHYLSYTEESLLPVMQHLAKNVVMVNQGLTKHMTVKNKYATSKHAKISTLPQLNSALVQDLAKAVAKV
# Chain of human cyclin D1-CDK4 (P11802 whole entry): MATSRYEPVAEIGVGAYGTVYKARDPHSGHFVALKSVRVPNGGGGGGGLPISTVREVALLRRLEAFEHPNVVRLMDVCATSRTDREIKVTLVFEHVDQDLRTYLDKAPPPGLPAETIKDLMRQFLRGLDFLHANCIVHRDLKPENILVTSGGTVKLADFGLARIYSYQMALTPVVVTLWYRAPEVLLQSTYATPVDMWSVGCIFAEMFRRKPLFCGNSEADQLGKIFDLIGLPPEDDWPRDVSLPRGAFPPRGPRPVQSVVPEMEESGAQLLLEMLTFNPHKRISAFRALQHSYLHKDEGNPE
# Chain of human cyclin D1-CDK4 (P24385 whole entry partner): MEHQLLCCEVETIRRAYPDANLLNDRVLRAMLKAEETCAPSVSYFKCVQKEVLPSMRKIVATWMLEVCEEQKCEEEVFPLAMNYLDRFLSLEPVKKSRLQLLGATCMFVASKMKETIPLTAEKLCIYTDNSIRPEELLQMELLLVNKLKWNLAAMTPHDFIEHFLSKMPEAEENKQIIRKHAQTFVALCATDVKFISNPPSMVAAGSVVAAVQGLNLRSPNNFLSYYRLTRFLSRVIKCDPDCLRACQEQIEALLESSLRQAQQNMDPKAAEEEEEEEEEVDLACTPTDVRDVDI
IC50 (human cyclin E-CDK2) [µM],IC50 (HCT116) [µM],IC50 (human cyclin B-CDK1) [µM],IC50 (human cyclin D1-CDK4) [µM],Structure (SMILES)
7.4,1.2,2.2,0.026,CN1CCN(c2ccc(Nc3nc(N)c(C(=O)c4ccc(N5CCCC5)c(N)c4)s3)cc2)CC1 [Example 65]
6.5,9.2,6.1,0.008,"CCN(CC)c1ccc(C(=O)c2sc(Nc3ccc(N4CCN(C)CC4)cc3)nc2N)cc1 [Example 33, [4-Amino-2-[[4-(4-methyl-1-piperazinyl)phenyl]amino]-5-thiazolyl][4-(diethylamino)phenyl]methanone]"
3.7,3,2.9,0.015,"CC(C)N1CCN(c2ccc(Nc3nc(N)c(C(=O)c4ccc5c(c4)OCCO5)s3)cc2)CC1 [Example 41, [4-Amino-2-[[4-[4-(1-methylethyl)-1-piperazinyl]phenyl]amino]-5-thiazolyl](2,3-dihydro-1,4-benzodioxin-6-yl)methanone]"
7.1,13.3,2.3,0.01,"CCN(CC)c1ccc(C(=O)c2sc(Nc3ccc(N4CCN(C(C)=O)CC4)cc3)nc2N)cc1 [Example 48, 1-Acetyl-4-[4-[[4-amino-5-[4-(diethylamino)benzoyl]-2-thiazolyl]amino]phenyl]piperazine]"
5.2,3.6,3.6,0.014,"CCN(CC)c1ccc(C(=O)c2sc(Nc3ccc(N4CCN(C(C)C)CC4)cc3)nc2N)cc1 [Example 46, [4-Amino-2-[[4-[4-(1-methylethyl)-1-piperazinyl]phenyl]amino]-5-thiazolyl][4-(diethylamino)phenyl]methanone]"
5.3,1.3,5.2,0.025,"CC(C)C[C@H](CO)Nc1ccc(C(=O)c2sc(Nc3ccc(N4CCN(C)CC4)cc3)nc2N)cc1[N+](=O)[O-] [Example 63, (R)-[4-Amino-2-[[4-(4-methyl-1-piperazinyl)phenyl]amino]-5-thiazolyl][3-nitro-4-[[1-(hydroxymethyl)-3-methylbutyl]amino]phenyl]methanone]"
4.4,3.9,4.3,0.024,"CN1CCN(c2ccc(Nc3nc(N)c(C(=O)c4ccc(N5CCOCC5)c([N+](=O)[O-])c4)s3)cc2)CC1 [Example 59, [4-Amino-2-[[4-(4-methyl-1-piperazinyl)phenyl]amino]-5-thiazolyl][3-nitro-4-(4-morpholinyl)phenyl]methanone]"
0.5,0.9,0.9,0.02,Nc1nc(Nc2ccc(N3CCN(CCO)CC3)cc2)sc1C(=O)c1cccc(F)c1 [Example 51]
22.2,9.5,9.2,0.017,"CN1CCN(c2ccc(Nc3nc(N)c(C(=O)c4ccc(N5CCOCC5)cc4)s3)cc2)CC1 [Example 28, [4-Amino-2-[[4-(4-methyl-1-piperazinyl)phenyl]amino]-5-thiazolyl][4-(4-morpholinyl)phenyl]methanone]"
2.5,9.3,5.5,0.03,"Nc1nc(Nc2ccc(N3CCN(CCO)CC3)cc2)sc1C(=O)c1ccc(N2CCCC2)cc1 [Example 50, [4-Amino-2-[[4-[4-(2-hydroxyethyl)-1-piperazinyl]phenyl]amino]-5-thiazolyl][4-(1-pyrrolidinyl)phenyl]methanone]"
6.1,3.8,11.7,0.049,"CN1CCN(c2ccc(Nc3nc(N)c(C(=O)c4ccc5oc6ccccc6c5c4)s3)cc2)CC1 [Example 34, [4-Amino-2-[[4-(4-methyl-1-piperazinyl)phenyl]amino]-5-thiazolyl](2-dibenzofuranyl)methanone]"

# More lines, now with the values behind:
Structure (SMILES),IC50 (human cyclin E-CDK2) [µM],IC50 (HCT116) [µM],IC50 (human cyclin B-CDK1) [µM],IC50 (human cyclin D1-CDK4) [µM]
"COc1ccc(C(=O)c2sc(Nc3ccc(N4CCN(C)CC4)cc3)nc2N)cc1 [Example 32, [4-Amino-2-[[4-(4-methyl-1-piperazinyl)phenyl]amino]-5-thiazolyl](4-methoxyphenyl)methanone]",9.6,5.6,3.9,0.08
"COc1cccc(C(=O)c2sc(Nc3ccc(N4CCN(C(C)C)CC4)cc3)nc2N)c1 [Example 43, [4-Amino-2-[[4-[4-(1-methylethyl)-1-piperazinyl]phenyl]amino]-5-thiazolyl](3-methoxyphenyl)methanone]",3.4,1.3,1.9,0.021
"CC(C)C[C@H](CO)Nc1ccc(C(=O)c2sc(Nc3ccc(N4CCN(C)CC4)cc3)nc2N)cc1N [Example 66, (R)-[3-Amino-4-[[1-(hydroxymethyl)-3-methylbutyl]amino]phenyl][4-amino-2-[[4-(4-methyl-1-piperazinyl)phenyl]amino]-5-thiazolyl]methanone]",3.8,10.8,9.6,0.02
"CC(C)N1CCN(c2ccc(Nc3nc(N)c(C(=O)c4ccc5c(c4)OCO5)s3)cc2)CC1 [Example 42, [4-Amino-2-[[4-[4-(1-methylethyl)-1-piperazinyl]phenyl]amino]-5-thiazolyl](1,3-benzodioxol-5-yl)methanone]",2.9,1.5,1.9,0.01
"COCCNc1ccc(C(=O)c2sc(Nc3ccc(N4CCN(C)CC4)cc3)nc2N)cc1[N+](=O)[O-] [Example 60, [4-Amino-2-[[4-(4-methyl-1-piperazinyl)phenyl]amino]-5-thiazolyl][3-nitro-4-[(2-methoxyethyl)amino]phenyl]methanone]",7.9,4.9,5.9,0.017
"CN1CCN(c2ccc(Nc3nc(N)c(C(=O)c4cccc([N+](=O)[O-])c4)s3)cc2)CC1 [Example 31, [4-Amino-2-[[4-(4-methyl-1-piperazinyl)phenyl]amino]-5-thiazolyl](3-nitrophenyl)methanone]",2.3,4.1,0.5,0.026
"CN1CCN(c2ccc(Nc3nc(N)c(C(=O)c4ccc(N5CCC(O)CC5)c([N+](=O)[O-])c4)s3)cc2)CC1 [Example 64, [4-Amino-2-[[4-(4-methyl-1-piperazinyl)phenyl]amino]-5-thiazolyl][3-nitro-4-(4-hydroxy-1-piperidinyl)phenyl]methanone]",4.8,8,3.5,0.009
"CN1CCN(c2ccc(Nc3nc(N)c(C(=O)c4ccc(N5CCCC5)cc4)s3)cc2)CC1 [Example 26, [4-Amino-2-[[4-(4-methyl-1-piperazinyl)phenyl]amino]-5-thiazolyl][4-(1-pyrrolidinyl)phenyl]methanone]",6.2,5.6,9,0.059

# Reference: patent publication US6756374B2, “Diaminothiazoles having antiproliferative activity” (Hoffmann-La Roche Inc., priority 2001, dated 2004)
